Laboratory results taken from patent publication US8178506B2, “Oligomeric compounds and compositions for use in modulation of small non-coding RNAs” (Regulus Therapeutics Inc., priority 2003, dated 2012).
In the oligonucleotide strings, read from the 5' end, every base follows the letter of its sugar. An asterisk marks phosphorothioate; unmarked linkages are phosphodiester. Other units and linkages are bracketed, terminal groups are in braces. A string of capitals states the bases alone. e = 2'-O-(2-methoxyethyl) (MOE); [5mC] = 5-methylcytosine; d = 2'-deoxy (DNA)

Experiments:
adipocytes = experiment: Triglyceride accumulation assay in adipocytes; assay type: cell-based, human
Glut4 = Glut4 mRNA expression in adipocytes (real-time PCR); assay type: cell-based, human; conditions: for Glut4 (mRNA expression): adipocytes, 250 nM oligomeric compound, day nine post-transfection, relative to control (1.0)
aP2 = aP2 mRNA expression in adipocytes (real-time PCR); assay type: cell-based, human; conditions: for AP2 (mRNA expression): adipocytes, 250 nM oligomeric compound, day nine post-transfection, relative to control (1.0); for aP2 mRNA: Table 75
PPARγ = PPARγ mRNA expression in adipocytes (real-time PCR); assay type: cell-based, human; conditions: for PPAR gamma (mRNA expression): adipocytes, 250 nM oligomeric compound, day nine post-transfection, relative to control (1.0)
HuVECs = experiment: Endothelial tube formation assay in HuVECs; conditions: 75 nM oligomeric compound
HSL = HSL mRNA expression in adipocytes (real-time PCR); assay type: cell-based, human; conditions: for HSL (mRNA expression): adipocytes, 250 nM oligomeric compound, day nine post-transfection, relative to control (1.0)
[1] = adipocytes, 250 nM oligomeric compound, relative to control (1.0), Table 15
[2] = adipocytes, 250 nM oligomeric compound, relative to control (1.0), Table 16
[3] = differentiating adipocytes transfected with oligomeric compound
[4] = differentiating adipocytes transfected with oligomeric compound, Table 75
[5] = Table 20, adipocyte differentiation assay as in Example 13
[6] = Table 17, differentiating adipocytes, control = treatment with ISIS 342673
[7] = Table 18, differentiating adipocytes, control = treatment with ISIS 342673

Substance: 327925 (antisense eT*eA*eG*e[5mC]*eT*eG*eG*eT*eT*eG*eA*eA*eG*eG*eG*eG*eA*e[5mC]*e[5mC]*eA*eA) [compound 327925]
- TG (triglyceride accumulation) (adipocytes; [1]): 0.72
- TG (triglyceride accumulation) (adipocytes; [2]): 0.63
- Glut4 (mRNA expression) (Glut4; Table 15): 1.99
- Glut4 (mRNA expression) (Glut4; Table 16): 0.61
- AP2 (mRNA expression) (aP2; Table 15): 0.77
- AP2 (mRNA expression) (aP2; Table 16): 0.77
- PPAR gamma (mRNA expression) (PPARγ; Table 15): 0.60
- PPAR gamma (mRNA expression) (PPARγ; Table 16): 0.83
- % Activity Relative to UTC (tube formation) (HuVECs; Table 58): 44.4%
- HSL (mRNA expression) (HSL; Table 15): 0.78
- HSL (mRNA expression) (HSL; Table 16): 0.75

Substance: 327888 (antisense eA*eA*eT*eG*e[5mC]*e[5mC]*e[5mC]*e[5mC]*eT*eA*eA*eA*eA*eA*eT*e[5mC]*e[5mC]*eT*eT*eA*eT) [compound 327888]
- TG (triglyceride accumulation) (adipocytes; [1]): 0.98
- TG (triglyceride accumulation) (adipocytes; [2]): 0.44
- TG (triglyceride accumulation) (adipocytes; [3]): 132 percentage of untreated control (UTC)
- Glut4 (mRNA expression) (Glut4; Table 15): 1.37
- Glut4 (mRNA expression) (Glut4; Table 16): 0.17
- GLUT4 mRNA (Glut4; [3]): 84 percentage of untreated control (UTC)
- AP2 (mRNA expression) (aP2; Table 15): 1.18
- AP2 (mRNA expression) (aP2; Table 16): 0.47
- AP2 mRNA (aP2; [3]): 102 percentage of untreated control (UTC)
- PPAR gamma (mRNA expression) (PPARγ; Table 15): 1.36
- PPAR gamma (mRNA expression) (PPARγ; Table 16): 0.66
- PPAR gamma mRNA (PPARγ; [3]): 103 percentage of untreated control (UTC)
- % Activity Relative to UTC (tube formation) (HuVECs; Table 56): 100.0%
- HSL (mRNA expression) (HSL; Table 15): 1.38
- HSL (mRNA expression) (HSL; Table 16): 0.50
- HSL mRNA (HSL; [3]): 134 percentage of untreated control (UTC)

Substance: 327933 (antisense eA*eA*eG*eG*eG*eA*eT*eT*e[5mC]*e[5mC]*eT*eG*eG*eG*eA*eA*eA*eA*e[5mC]*eT*eG*eG*eA*e[5mC]) [compound 327933]
- TG (triglyceride accumulation) (adipocytes; [1]): 1.48
- TG (triglyceride accumulation) (adipocytes; [3]): 127 percentage of untreated control (UTC)
- Glut4 (mRNA expression) (Glut4; Table 15): 2.52
- GLUT4 mRNA (Glut4; [3]): 127 percentage of untreated control (UTC)
- AP2 (mRNA expression) (aP2; Table 15): 1.46
- AP2 mRNA (aP2; [3]): 82 percentage of untreated control (UTC)
- PPAR gamma (mRNA expression) (PPARγ; Table 15): 1.52
- PPAR gamma mRNA (PPARγ; [3]): 100 percentage of untreated control (UTC)
- % Activity Relative to UTC (tube formation) (HuVECs; Table 58): 59.3%
- HSL (mRNA expression) (HSL; Table 15): 1.35
- HSL mRNA (HSL; [3]): 132 percentage of untreated control (UTC)

Substance: 327911 (antisense eG*e[5mC]*eT*eA*e[5mC]*e[5mC]*eT*eG*e[5mC]*eA*e[5mC]*eT*eG*eT*eA*eA*eG*e[5mC]*eA*e[5mC]*eT*eT*eT*eT) [compound 327911]
- TG (triglyceride accumulation) (adipocytes; [4]): 59 percentage of untreated control (UTC)
- GLUT4 mRNA (Glut4; [4]): 48 percentage of untreated control (UTC)
- aP2 mRNA (aP2; [3]): 76 percentage of untreated control (UTC)
- PPAR gamma mRNA (PPARγ; [4]): 75 percentage of untreated control (UTC)
- % Activity Relative to UTC (tube formation) (HuVECs; Table 57): 75.9%
- HSL mRNA (HSL; [4]): 71 percentage of untreated control (UTC)

Substance: 327934 (antisense eG*eG*eT*eA*e[5mC]*eA*eA*eT*e[5mC]*eA*eA*e[5mC]*eG*eG*eT*e[5mC]*eG*eA*eT*eG*eG*eT) [compound 327934]
- TG (triglyceride accumulation) (adipocytes; [1]): 0.99
- TG (triglyceride accumulation) (adipocytes; [2]): 0.62
- Glut4 (mRNA expression) (Glut4; Table 15): 1.22
- Glut4 (mRNA expression) (Glut4; Table 16): 0.44
- AP2 (mRNA expression) (aP2; Table 15): 1.20
- AP2 (mRNA expression) (aP2; Table 16): 0.66
- PPAR gamma (mRNA expression) (PPARγ; Table 15): 0.97
- PPAR gamma (mRNA expression) (PPARγ; Table 16): 0.72
- % Activity Relative to UTC (tube formation) (HuVECs; Table 58): 51.9%
- HSL (mRNA expression) (HSL; Table 15): 1.02
- HSL (mRNA expression) (HSL; Table 16): 0.64

Substance: 327878 (antisense e[5mC]*eT*eA*eG*eT*eG*eG*eT*e[5mC]*e[5mC]*eT*eA*eA*eA*e[5mC]*eA*eT*eT*eT*e[5mC]*eA*e[5mC]) [compound 327878]
- TG (triglyceride accumulation) (adipocytes; [1]): 0.65
- Glut4 (mRNA expression) (Glut4; Table 15): 0.69
- AP2 (mRNA expression) (aP2; Table 15): 0.85
- PPAR gamma (mRNA expression) (PPARγ; Table 15): 0.97
- % Activity Relative to UTC (tube formation) (HuVECs; Table 56): 57.1%
- HSL (mRNA expression) (HSL; Table 15): 0.93

Substance: 328759 (antisense eG*eA*eG*eG*eG*dA*dT*dT*dG*dT*dA*dT*dG*dA*dA*e[5mC]*eA*eT*e[5mC]*eT) [compound 328759]
- TG (triglyceride accumulation) (adipocytes; [3]): 87 percentage of untreated control (UTC)
- GLUT4 mRNA (Glut4; [3]): 66 percentage of untreated control (UTC)
- AP2 mRNA (aP2; [3]): 108 percentage of untreated control (UTC)
- PPAR gamma mRNA (PPARγ; [3]): 95 percentage of untreated control (UTC)
- HSL mRNA (HSL; [3]): 105 percentage of untreated control (UTC)

Substance: 328382 (e[5mC]*eA*eG*eA*e[5mC]*dT*d[5mC]*d[5mC]*d[5mC]*dA*dA*d[5mC]*dT*dG*dA*e[5mC]*e[5mC]*eA*eG*eA) [compound 328382]
- TG (adipocytes; [5]): 0.72
- Glut4 (Glut4; [5]): 0.85
- AP2 (aP2; [5]): 0.89
- PPAR gamma (PPARγ; [5]): 0.96
- HSL (HSL; [5]): 0.75

Substance: 328117 (antisense eT*e[5mC]*e[5mC]*eA*e[5mC]*eA*eA*eA*eG*e[5mC]*eT*eG*eA*eA*e[5mC]*eA*eT*eG*eT*e[5mC]*eT) [compound 328117]
- TG (triglyceride accumulation) (adipocytes; [6]): 55.0 percentage of control
- TG (triglyceride accumulation) (adipocytes; [4]): 16 percentage of untreated control (UTC)
- GLUT4 mRNA (Glut4; [6]): 68.1 percentage of control
- GLUT4 mRNA (Glut4; [4]): 13 percentage of untreated control (UTC)
- AP2 mRNA (aP2; [6]): 65.4 percentage of control
- aP2 mRNA (aP2; [3]): 28 percentage of untreated control (UTC)
- PPAR gamma mRNA (PPARγ; [6]): 64.1 percentage of control
- PPAR gamma mRNA (PPARγ; [4]): 42 percentage of untreated control (UTC)
- HSL mRNA (HSL; [6]): 61.7 percentage of control
- HSL mRNA (HSL; [4]): 18 percentage of untreated control (UTC)

Substance: 341806 (antisense GCCAATATTTCTGTGCTGCTA; all 2'-MOE, all phosphorothioate, methylation of C not given here) [compound 341806]
- TG (triglyceride accumulation) (adipocytes; [7]): 83.2 percentage of control
- GLUT4 mRNA (Glut4; [7]): 69.4 percentage of control
- GLUT4 mRNA (Glut4; [4]): 58 percentage of untreated control (UTC)
- AP2 mRNA (aP2; [7]): 75.8 percentage of control
- aP2 mRNA (aP2; [3]): 83 percentage of untreated control (UTC)
- PPAR gamma mRNA (PPARγ; [7]): 72.6 percentage of control
- PPAR gamma mRNA (PPARγ; [4]): 70 percentage of untreated control (UTC)
- HSL mRNA (HSL; [7]): 73.4 percentage of control
- HSL mRNA (HSL; [4]): 77 percentage of untreated control (UTC)

Substance: 328677 (eT*e[5mC]*e[5mC]*eT*eG*dG*dA*dT*dG*dA*dT*dA*dT*d[5mC]*dT*eA*e[5mC]*e[5mC]*eT*e[5mC]; antisense) [compound 328677]
- TG (triglyceride accumulation) (adipocytes; [3]): 34 percentage of untreated control (UTC)
- GLUT4 mRNA (Glut4; [3]): 44 percentage of untreated control (UTC)
- AP2 mRNA (aP2; [3]): 61 percentage of untreated control (UTC)
- PPAR gamma mRNA (PPARγ; [3]): 89 percentage of untreated control (UTC)
- HSL mRNA (HSL; [3]): 68 percentage of untreated control (UTC)

Substance: 328115 (antisense eA*eG*eA*eA*eG*eG*eT*eG*eG*eG*eG*eA*eG*e[5mC]*eA*eG*e[5mC]*eG*eT*e[5mC]*eA) [compound 328115]
- TG (triglyceride accumulation) (adipocytes; [7]): 108.7 percentage of control
- TG (triglyceride accumulation) (adipocytes; [4]): 53 percentage of untreated control (UTC)
- GLUT4 mRNA (Glut4; [7]): 132.0 percentage of control
- GLUT4 mRNA (Glut4; [4]): 84 percentage of untreated control (UTC)
- AP2 mRNA (aP2; [7]): 80.0 percentage of control
- aP2 mRNA (aP2; [3]): 74 percentage of untreated control (UTC)
- PPAR gamma mRNA (PPARγ; [7]): 95.8 percentage of control
- PPAR gamma mRNA (PPARγ; [4]): 80 percentage of untreated control (UTC)
- HSL mRNA (HSL; [7]): 89.0 percentage of control
- HSL mRNA (HSL; [4]): 75 percentage of untreated control (UTC)

Substance: 328105 (antisense e[5mC]*e[5mC]*eT*e[5mC]*eA*eA*eT*eT*eA*eT*eT*eG*eG*eA*eA*eA*eT*e[5mC]*eA*e[5mC]*eA) [compound 328105]
- TG (triglyceride accumulation) (adipocytes; [7]): 93.1 percentage of control
- TG (triglyceride accumulation) (adipocytes; [4]): 82 percentage of untreated control (UTC)
- GLUT4 mRNA (Glut4; [7]): 94.2 percentage of control
- GLUT4 mRNA (Glut4; [4]): 75 percentage of untreated control (UTC)
- AP2 mRNA (aP2; [7]): 88.2 percentage of control
- aP2 mRNA (aP2; [3]): 102 percentage of untreated control (UTC)
- PPAR gamma mRNA (PPARγ; [7]): 93.3 percentage of control
- PPAR gamma mRNA (PPARγ; [4]): 85 percentage of untreated control (UTC)
- HSL mRNA (HSL; [7]): 94.2 percentage of control
- HSL mRNA (HSL; [4]): 95 percentage of untreated control (UTC)
